Data: patent publication US20250205344A1, “2,4-DIOXOTETRAHYDROPYRIMIDINYL DERATIVES AS DEGRONS IN PROTACS” (GLAXOSMITHKLINE INTELLECTUAL PROPERTY DEVELOPMENT LIMITED, priority 2022, published 2025)
Counter-ions that a name gives are not always drawn.

target: T1, Androgen Receptor (Homo sapiens, UniProt P10275, T878A); test: Androgen Receptor Degradation Assay (Nano-Glo HiBiT); format: cell-based; conditions: HiBiT-tagged AR in human LnCaP cells, 18 h
T1 construct: the AR gene was modified, using CRISPR/Cas9 editing, so the expressed AR protein included an 11 amino acid HiBiT tag; endogenous in cells; host or cells: clonal LnCaP-derived line, AR gene edited by CRISPR/Cas9
T1 sequence (P10275 whole entry T878A): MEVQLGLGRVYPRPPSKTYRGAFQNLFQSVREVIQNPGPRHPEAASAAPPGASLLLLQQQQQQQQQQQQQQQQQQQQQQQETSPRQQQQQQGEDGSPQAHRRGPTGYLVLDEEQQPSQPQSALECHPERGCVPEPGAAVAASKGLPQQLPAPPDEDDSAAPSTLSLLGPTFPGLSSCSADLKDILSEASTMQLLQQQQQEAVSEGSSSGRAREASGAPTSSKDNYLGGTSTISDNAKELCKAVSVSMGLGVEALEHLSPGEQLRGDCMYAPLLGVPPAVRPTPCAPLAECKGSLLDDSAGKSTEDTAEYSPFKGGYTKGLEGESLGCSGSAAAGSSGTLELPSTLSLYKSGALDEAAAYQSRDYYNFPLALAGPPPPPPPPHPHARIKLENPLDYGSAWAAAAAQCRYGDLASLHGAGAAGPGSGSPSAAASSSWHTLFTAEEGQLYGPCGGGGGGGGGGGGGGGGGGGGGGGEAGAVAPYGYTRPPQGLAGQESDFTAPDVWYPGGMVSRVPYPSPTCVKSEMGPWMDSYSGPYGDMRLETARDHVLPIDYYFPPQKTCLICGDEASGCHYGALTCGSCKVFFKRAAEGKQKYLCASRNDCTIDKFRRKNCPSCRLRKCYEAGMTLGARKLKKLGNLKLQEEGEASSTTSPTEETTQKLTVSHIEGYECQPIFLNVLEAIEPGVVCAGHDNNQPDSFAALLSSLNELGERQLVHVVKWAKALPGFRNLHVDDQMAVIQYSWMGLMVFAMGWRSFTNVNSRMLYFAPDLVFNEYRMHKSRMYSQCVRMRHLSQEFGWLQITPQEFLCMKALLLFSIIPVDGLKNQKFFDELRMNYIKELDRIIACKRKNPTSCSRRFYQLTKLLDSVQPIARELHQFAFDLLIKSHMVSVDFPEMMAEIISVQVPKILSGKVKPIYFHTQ
T1 sequence (Q96SW2 whole entry partner): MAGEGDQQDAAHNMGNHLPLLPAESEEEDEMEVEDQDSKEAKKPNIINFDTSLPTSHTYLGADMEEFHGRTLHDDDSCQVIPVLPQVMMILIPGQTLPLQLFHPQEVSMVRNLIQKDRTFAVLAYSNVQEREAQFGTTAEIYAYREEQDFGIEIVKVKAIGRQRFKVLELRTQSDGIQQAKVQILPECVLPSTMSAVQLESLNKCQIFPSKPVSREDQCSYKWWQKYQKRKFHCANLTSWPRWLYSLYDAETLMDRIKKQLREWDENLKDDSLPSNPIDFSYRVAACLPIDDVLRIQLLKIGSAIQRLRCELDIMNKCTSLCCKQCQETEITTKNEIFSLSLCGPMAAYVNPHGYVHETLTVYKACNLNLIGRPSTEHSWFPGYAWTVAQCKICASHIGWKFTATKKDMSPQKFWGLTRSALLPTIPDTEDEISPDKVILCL
T1 sequence (Q16531 whole entry partner): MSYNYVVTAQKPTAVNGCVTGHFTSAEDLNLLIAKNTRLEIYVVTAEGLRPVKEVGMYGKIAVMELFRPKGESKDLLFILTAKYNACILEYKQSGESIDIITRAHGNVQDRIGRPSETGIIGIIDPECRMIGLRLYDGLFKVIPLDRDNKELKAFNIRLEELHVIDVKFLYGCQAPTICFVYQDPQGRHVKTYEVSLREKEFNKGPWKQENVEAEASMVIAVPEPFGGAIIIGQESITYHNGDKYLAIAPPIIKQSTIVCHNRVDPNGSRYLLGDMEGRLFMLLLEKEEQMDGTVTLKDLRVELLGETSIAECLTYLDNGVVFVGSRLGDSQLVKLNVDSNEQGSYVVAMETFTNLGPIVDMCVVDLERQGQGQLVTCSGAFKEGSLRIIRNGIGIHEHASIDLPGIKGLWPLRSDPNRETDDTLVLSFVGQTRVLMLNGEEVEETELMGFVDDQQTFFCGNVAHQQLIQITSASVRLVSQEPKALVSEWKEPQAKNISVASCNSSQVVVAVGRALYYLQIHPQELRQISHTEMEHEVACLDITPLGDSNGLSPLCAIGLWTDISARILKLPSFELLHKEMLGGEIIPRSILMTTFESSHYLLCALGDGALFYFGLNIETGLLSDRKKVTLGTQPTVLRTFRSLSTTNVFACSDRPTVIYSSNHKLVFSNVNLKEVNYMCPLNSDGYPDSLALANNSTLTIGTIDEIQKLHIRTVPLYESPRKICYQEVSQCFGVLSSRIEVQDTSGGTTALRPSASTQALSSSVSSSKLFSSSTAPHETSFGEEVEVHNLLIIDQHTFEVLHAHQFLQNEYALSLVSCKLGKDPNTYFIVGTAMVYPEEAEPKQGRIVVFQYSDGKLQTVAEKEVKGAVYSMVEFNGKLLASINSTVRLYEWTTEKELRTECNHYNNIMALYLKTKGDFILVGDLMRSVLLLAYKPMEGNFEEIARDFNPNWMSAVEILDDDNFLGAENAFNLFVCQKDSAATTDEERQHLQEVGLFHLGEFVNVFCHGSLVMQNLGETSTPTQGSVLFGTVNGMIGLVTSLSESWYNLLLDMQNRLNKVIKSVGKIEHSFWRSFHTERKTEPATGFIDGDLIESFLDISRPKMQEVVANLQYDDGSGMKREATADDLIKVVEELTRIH
How it was run: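 LnCaP cells with CRISPR-knocked-in N-terminal HiBiT-tagged AR (10,000/well) treated 18 h at 37 °C with PROTACs over 11 threefold concentrations; lytic HiBiT luminescence normalised to DMSO (0%) and cell-free (100%) controls. Relative DC50 = 4-parameter fit inflection; absolute DC50 = 50% degradation interpolation; Dmax = maximum observed degradation.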

Row | SMILES | mean relative pDC50
1 | CC(C)n1ccc2c(N3CCC(=O)NC3=O)cc(C(=O)N3CCN(CCC4CCN(c5ccc(NC(=O)N6C[C@H](C)N(c7ccc(C#N)c(Cl)c7)C[C@H]6C)cn5)CC4)CC3)cc21 [EAR 118, (2R,5S)-4-(3-Chloro-4-cyanophenyl)-N-(6-(4-(2-(4-(4-(2,4-dioxotetrahydropyrimidin-1(2H)-yl)-1-isopropyl-1H-indole-6-carbonyl)piperazin-1-yl)ethyl)piperidin-1-yl)pyridin-3-yl)-2,5-dimethylpiperazine-1-carboxamide] | 5.72

same assay, conditions: LNCaP, 18 h, HiBiT-tagged AR in human LnCaP cells, read-out: mean asymptote max

Row | Dmax [%] | SMILES
2 | ≥ 50 | N#Cc1ccc(O[C@H]2CC[C@H](NC(=O)c3ccc(N4CC5(CCC(CN6CCC(n7ncc8c(N9CCC(=O)NC9=O)cccc87)CC6)CO5)C4)nn3)CC2)cc1Cl (some centres unmarked) [EAR218, N-((1r,4r)-4-(3-Chloro-4-cyanophenoxy)cyclohexyl)-6-(7-((4-(4-(2,4-dioxotetrahydropyrimidin-1(2H)-yl)-1H-indazol-1-yl)piperidin-1-yl)methyl)-5-oxa-2-azaspiro[3.5]nonan-2-yl)pyridazine-3-carboxamide]
3 | ≥ 50 | N#Cc1ccc(O[C@H]2CC[C@H](NC(=O)c3ccc(N4CC[C@H](CN5CCC(n6ncc7c(N8CCC(=O)NC8=O)cccc76)CC5)C4)nn3)CC2)cc1Cl [EAR238, N-((1r,4R)-4-(3-chloro-4-cyanophenoxy)cyclohexyl)-6-((R)-3-((4-(4-(2,4-dioxotetrahydropyrimidin-1(2H)-yl)-1H-indazol-1-yl)piperidin-1-yl)methyl)pyrrolidin-1-yl)pyridazine-3-carboxamide]
4 | ≥ 50 | N#Cc1ccc(O[C@H]2CC[C@H](NC(=O)c3ccc(N4CCN(CC5CCC(n6ccc7c(N8CCC(=O)NC8=O)cccc76)CC5)CC4)nn3)CC2)cc1Cl (some centres unmarked) [EAR194, N-((1r,4r)-4-(3-Chloro-4-cyanophenoxy)cyclohexyl)-6-(4-((4-(4-(2,4-dioxotetrahydropyrimidin-1(2H)-yl)-1H-indol-1-yl)cyclohexyl)methyl)piperazin-1-yl)pyridazine-3-carboxamide, trifluoroacetic acid salt]
5 | ≥ 50 | N#Cc1ccc(O[C@H]2CC[C@H](NC(=O)c3ccc(N4CCC(CN5CCC(Cn6ccc7c(N8CCC(=O)NC8=O)cccc76)CC5)CC4)nn3)CC2)cc1Cl [EAR26, N-((1r,4r)-4-(3-Chloro-4-cyanophenoxy)cyclohexyl)-6-(4-((4-((4-(2,4-dioxotetrahydropyrimidin-1(2H)-yl)-1H-indol-1-yl)methyl)piperidin-1-yl)methyl)piperidin-1-yl)pyridazine-3-carboxamide hydrochloride]
6 | ≥ 50 | CC1(C)[C@H](NC(=O)c2ccc(N3CCC(CN4CCC(n5ccc6c(N7CCC(=O)NC7=O)cccc65)CC4)CC3)nn2)C(C)(C)[C@H]1Oc1ccc(C#N)c(Cl)c1 [EAR55, N-((1r,3r)-3-(3-Chloro-4-cyanophenoxy)-2,2,4,4-tetramethylcyclobutyl)-6-(4-((4-(4-(2,4-dioxotetrahydropyrimidin-1(2H)-yl)-1H-indol-1-yl)piperidin-1-yl)methyl)piperidin-1-yl)pyridazine-3-carboxamide]
7 | ≥ 50 | N#Cc1ccc(O[C@H]2CC[C@H](NC(=O)c3ccc(N4CCC5(CC(CN6CCC(n7ncc8c(N9CCC(=O)NC9=O)cccc87)CC6)C5)C4)nn3)CC2)cc1Cl (some centres unmarked) [EAR233, N-((1r,4r)-4-(3-chloro-4-cyanophenoxy)cyclohexyl)-6-(2-((4-(4-(2,4-dioxotetrahydropyrimidin-1(2H)-yl)-1H-indazol-1-yl)piperidin-1-yl)methyl)-6-azaspiro[3.4]octan-6-yl)pyridazine-3-carboxamide]
8 | ≥ 50 | CC1(C)[C@H](NC(=O)c2ccc(N3CCC(CN4CCC(n5ncc6c(N7CCC(=O)NC7=O)nccc65)CC4)CC3)nc2)C(C)(C)[C@H]1Oc1cnc(C#N)c(Cl)c1 [EAR257, N-((1r,3r)-3-((5-Chloro-6-cyanopyridin-3-yl)oxy)-2,2,4,4-tetramethylcyclobutyl)-6-(4-((4-(4-(2,4-dioxotetrahydropyrimidin-1(2H)-yl)-1H-pyrazolo[4,3-c]pyridin-1-yl)piperidin-1-yl)methyl)piperidin-1-yl)nicotinamide]

More lines, now with the values behind:

Row | SMILES | Dmax [%]
9 | CC1(CN2CCC(n3ncc4c(N5CCC(=O)NC5=O)cccc43)CC2)CN(c2ccc(C(=O)N[C@H]3CC[C@H](Oc4ccc(C#N)c(Cl)c4)CC3)nn2)C1 [EAR240, N-((1r,4r)-4-(3-chloro-4-cyanophenoxy)cyclohexyl)-6-(3-((4-(4-(2,4-dioxotetrahydropyrimidin-1(2H)-yl)-1H-indazol-1-yl)piperidin-1-yl)methyl)-3-methylazetidin-1-yl)pyridazine-3-carboxamide] | ≥ 50
10 | CC1(C)C(=O)N(c2ccc(C#N)c(C(F)(F)F)c2)C(=S)N1c1ccc(N2CCC(CCN3CCC(n4ncc5c(N6CCC(=O)NC6=O)cncc54)CC3)CC2)cc1 [EAR97, 4-(3-(4-(4-(2-(4-(4-(2,4-Dioxotetrahydropyrimidin-1(2H)-yl)-1H-pyrazolo[3,4-c]pyridin-1-yl)piperidin-1-yl)ethyl)piperidin-1-yl)phenyl)-4,4-dimethyl-5-oxo-2-thioxoimidazolidin-1-yl)-2-(trifluoromethyl)benzonitrile formate] | ≥ 50
11 | N#Cc1ccc(O[C@H]2CC[C@H](NC(=O)c3ccc(C4CCN(C(=O)CN5CCC(n6ccc7c(N8CCC(=O)NC8=O)cccc76)CC5)CC4)cc3)CC2)cc1Cl [AR1, N-((1r,4r)-4-(3-Chloro-4-cyanophenoxy)cyclohexyl)-4-(1-(2-(4-(4-(2,4-dioxotetrahydropyrimidin-1(2H)-yl)-1H-indol-1-yl)piperidin-1-yl)acetyl)piperidin-4-yl)benzamide] | ≥ 50
12 | C[C@@H]1CN(C(=O)Nc2cnc(N3CCC(CN4CCC(n5ccc6c(N7CCC(=O)NC7=O)cccc65)CC4)CC3)nc2)[C@@H](C)CN1c1ccc(C#N)c(Cl)c1 (racemic) [EAR114, rac-(trans)-4-(3-Chloro-4-cyanophenyl)-N-(2-(4-((4-(4-(2,4-dioxotetrahydropyrimidin-1(2H)-yl)-1H-indol-1-yl)piperidin-1-yl)methyl)piperidin-1-yl)pyrimidin-5-yl)-2,5-dimethylpiperazine-1-carboxamide] | ≥ 50
13 | N#Cc1ccc(O[C@H]2CC[C@H](NC(=O)c3ccc(OCCCCN4CCC(n5ccc6c(N7CCC(=O)NC7=O)cccc65)CC4)cn3)CC2)cc1Cl [EAR66, N-((1r,4r)-4-(3-chloro-4-cyanophenoxy)cyclohexyl)-5-(4-(4-(4-(2,4-dioxotetrahydropyrimidin-1(2H)-yl)-1H-indol-1-yl)piperidin-1-yl)butoxy)picolinamide] | ≥ 50
14 | N#Cc1ccc(O[C@H]2CC[C@H](NC(=O)c3ccc(N4CCC(CN5CCC(n6ccc7c(N8CCC(=O)NC8=O)cncc76)CC5)CC4)nn3)CC2)cc1Cl [EAR48, N-((1r,4r)-4-(3-Chloro-4-cyanophenoxy)cyclohexyl)-6-(4-((4-(4-(2,4-dioxotetrahydropyrimidin-1(2H)-yl)-1H-pyrrolo[2,3-c]pyridin-1-yl)piperidin-1-yl)methyl)piperidin-1-yl)pyridazine-3-carboxamide hydrochloride] | ≥ 50
15 | N#Cc1ccc(O[C@H]2CC[C@H](NC(=O)c3ccc(N4CCC[C@@H](CN5CCC(n6ncc7c(N8CCC(=O)NC8=O)cccc76)CC5)C4)nn3)CC2)cc1Cl [EAR153, N-((1r,4S)-4-(3-Chloro-4-cyanophenoxy)cyclohexyl)-6-((S)-3-((4-(4-(2,4-dioxotetrahydropyrimidin-1(2H)-yl)-1H-indazol-1-yl)piperidin-1-yl)methyl)piperidin-1-yl)pyridazine-3-carboxamide, formic acid salt] | ≥ 50
16 | N#Cc1ccc(O[C@H]2CC[C@H](NC(=O)c3ccc(N4CC5CC(CN6CCC(n7ncc8c(N9CCC(=O)NC9=O)cccc87)CC6)(C5)C4)nn3)CC2)cc1Cl [EAR219, N-((1r,4r)-4-(3-chloro-4-cyanophenoxy)cyclohexyl)-6-(1-((4-(4-(2,4-dioxotetrahydropyrimidin-1(2H)-yl)-1H-indazol-1-yl)piperidin-1-yl)methyl)-3-azabicyclo[3.1.1]heptan-3-yl)pyridazine-3-carboxamide] | ≥ 50
17 | N#Cc1ccc(O[C@H]2CC[C@H](NC(=O)c3cccc(OC4CCN(C(=O)CN5CCC(n6ccc7c(N8CCC(=O)NC8=O)cccc76)CC5)CC4)c3)CC2)cc1Cl [AR2, N-((1r,4r)-4-(3-Chloro-4-cyanophenoxy)cyclohexyl)-3-((1-(2-(4-(4-(2,4-dioxotetrahydropyrimidin-1(2H)-yl)-1H-indol-1-yl)piperidin-1-yl)acetyl)piperidin-4-yl)oxy)benzamide] | ≥ 50
18 | CC1(C)C(=O)N(c2ccc(C#N)c(C(F)(F)F)c2)C(=S)N1c1ccc(N2CCC(CN3CCC(n4ncc5c(N6CCC(=O)NC6=O)cccc54)CC3)CC2)cc1 [EAR95, 4-(3-(4-(4-((4-(4-(2,4-Dioxotetrahydropyrimidin-1(2H)-yl)-1H-indazol-1-yl)piperidin-1-yl)methyl)piperidin-1-yl)phenyl)-4,4-dimethyl-5-oxo-2-thioxoimidazolidin-1-yl)-2-(trifluoromethyl)benzonitrile] | ≥ 50
19 | CC(C)n1ccc2c(N3CCC(=O)NC3=O)cc(C(=O)N3CCN(CCC4CCN(c5ccc(NC(=O)N6C[C@H](C)N(c7ccc(C#N)c(Cl)c7)C[C@H]6C)cn5)CC4)CC3)cc21 [EAR 118, (2R,5S)-4-(3-Chloro-4-cyanophenyl)-N-(6-(4-(2-(4-(4-(2,4-dioxotetrahydropyrimidin-1(2H)-yl)-1-isopropyl-1H-indole-6-carbonyl)piperazin-1-yl)ethyl)piperidin-1-yl)pyridin-3-yl)-2,5-dimethylpiperazine-1-carboxamide] | ≥ 50
20 | CC1(C)[C@H](NC(=O)c2ncc(N3CCC(CN4CCC(n5ncc6c(N7CCC(=O)NC7=O)ccnc65)CC4)CC3)cn2)C(C)(C)[C@H]1Oc1ccc(C#N)c(Cl)c1 [EAR272, N-((1r,3r)-3-(3-Chloro-4-cyanophenoxy)-2,2,4,4-tetramethylcyclobutyl)-5-(4-((4-(4-(2,4-dioxotetrahydropyrimidin-1(2H)-yl)-1H-pyrazolo[3,4-b]pyridin-1-yl)piperidin-1-yl)methyl)piperidin-1-yl)pyrimidine-2-carboxamide] | ≥ 50
